Results from patent publication US5512431A, “Methods of screening for nucleoside analogs that are incorporated by HIV reverse transcriptase and cause incorrect base pairing” (priority 1994, dated 1996).

Columns and labels:
[1] = target: T1, HIV-RT (HIV-1 M:B_HXB2R, UniProt P04585); test: Incorporation of oxidized dCTP derivatives into gapped M13mp2 DNA by HIV-RT; assay type: biochemical; conditions: for Molecules incorporated by HIV-RT per molecule of template: 2 min incubation
T1 construct: mature RT cut from Gag-Pol polyprotein (Pr160Gag-Pol)
Procedure: The purification of oxidized derivatives of dCTP is monitored by measuring incorporation into gapped DNA. The gapped DNA consists of a single-stranded circular M13mp2 DNA containing uracil residues annealed to a linear incomplete complementary strand lacking uracil so as to create a 361-nt gap spanning part of the lacZ gene (prepared as described in Feig and Loeb, Biochemistry 32:4466-73, 1993). The reaction mixture (0.02 ml) contains: 200 ng of gapped DNA, 60 mM Tris-HCl (pH 8.0), 10 mM KCl, 7 mM MgCl2, 1 mM dithiothreitol, 0.5 mM EDTA, 200 μM (each) dATP, dGTP and TTP, 1 μM α-^32 P!dCTP or modified dCTP (692 cpm/pmol), and 1.25 units of recombinant HIV-RT (Preston et al., Science 242:1168-1171, 1988) (1 unit is the amount of enzyme required to catalyze the incorporation of 1 nmol of dNTP into DNA in 1 h at 37° C.). The nucleotide bias in this reaction drives the incorporation of modified cytosine only at sites opposite guanosines in the lacZα gene. Samples are extracted once each with phenol and chloroform/isoamyl alcohol, 24:1, followed by ethanol precipitation in the presence of 400 mM NaCl and 10 μg of glycogen (as a coprecipitant). […]
The column fractions are used in place of dCTP for DNA synthesis reactions. […] Partially double-stranded DNA products are purified, and gap filling synthesis is completed using the Klenow fragment of E. coli DNA polymerase I. Incorporation of oxidized cytosine derivatives is quantified by scintillation counting and the toxicity of the fractions is assessed by comparing the transfection efficiency of DNA synthesized by using fractions containing the altered nucleotides to that of DNA synthesized with dCTP passed through the same column. The mutagenicity of each fraction is measured by scoring forward mutations in the lacZ gene for β-galactosidase (Kunkel, Proc. Natl. Acad Sci. USA 81:1494-1498, 1984).

[2] = tested on: lacZ gene; test: Forward mutation assay in lacZ of gapped M13mp2 DNA (reduced α-complementation) after transfection into E. coli; assay type: cell-based; conditions: for Transfection efficiency, plaques per ng: Table I, gap filled by pol-I1f; for Transfection efficiency, plaques per ng / Transfection efficiency (yield of transfectants) / Mutation frequency: with HIV-RT; for Mutation frequency: number of mutants in parentheses in Table I
Description: The column fractions are used in place of dCTP for DNA synthesis reactions. The DNA template is a double-stranded M13mp2 molecule with a 361-nt single-stranded gap spanning part of the lacZ gene for bacterial β-galactosidase. The uracil-containing strand is rapidly hydrolyzed upon transfection in E. coli, resulting in a 10^4 -fold preferential expression of the strand lacking uracil and preventing the repair of altered cytidines incorporated into the strand lacking uracil. DNA synthesis is catalyzed by HIV RT in the presence of 200 μM dATP, dGTP and TTP and 1 μM of each fraction from the reverse-phase column. Partially double-stranded DNA products are purified, and gap filling synthesis is completed using the Klenow fragment of E. coli DNA polymerase I. Incorporation of oxidized cytosine derivatives is quantified by scintillation counting and the toxicity of the fractions is assessed by comparing the transfection efficiency of DNA synthesized by using fractions containing the altered nucleotides to that of DNA synthesized with dCTP passed through the same column. The mutagenicity of each fraction is measured by scoring forward mutations in the lacZ gene for β-galactosidase (Kunkel, Proc. Natl. Acad Sci. USA 81:1494-1498, 1984).
Mutations produced by the incorporation of oxidized derivatives of dCTP into gapped DNA are identified by reduced α-complementation of β-galactosidase activity. Logarithmic-phase MC1061 hsdR, mcrR, araD, (139.increment.^- araABC^- leu) 7679.increment.lacX74, galU, galK, rspL, thi^- ! is prepared for electroporation by washing the cells four times with sterile H2 O. Cells are then pelleted and resuspended in a volume of H2 O equal to that of the packed cells. Fifty nanograms of the filled-gap DNA product is mixed with 300 μl of cells and subjected to electroporation using a Bio-Rad Gene Pulser ([…], 400 W, 2.0 KV, and time constants between 6.0 and 7.5). Samples are placed on ice and mixed with 1 ml of LB medium. Aliquots (10-40 μl) of the transfection mixtures are added to 3 ml of molten top agar (42° C.) consisting of 0.9% NaCl, 0.8% Bacto Agar, 0.08% 5-bromo-4-chloro-3-indolylβ-D-galactoside dissolved in dimethlyformamide, and 0.2 ml of CSH50 .increment.(proBlac)/F'+raD36, thi^-, ara^-, proAB, lacI^α Z^- .increment.m15! cells in logarithmic phase, and layered onto plates containing 30 ml of solidified M9 medium supplemented with 1.5% Bacto Agar and 15 mM isopropyl-β-D-thiogalactoside (IPTG). Phenotypes are confirmed by mixing mutant phage with an equal quantity of wild type M13mp2 phage and replating. Phage DNA is isolated (Kunkel, Proc. Natl. Sci. USA 81:1494-1498, 1984) and sequenced by the method of Sanger etal. (J. Mol. Biol. 125:225-246, 1978) using a 15-mer oligodeoxyribonucleotide primer complementary to the +179 to +194 segment of the lacZα coding sequence.
Mutagenic potential of γ is assessed by using a forward mutation assay. To reduce the frequency of mutations arising from the incorporation of noncomplementary nucleotides by HIV-RT, this incubation is performed for only 2 min. Under these conditions, HIV-RT incorporates approximately five molecules of γ or nine molecules of undamaged dCTP per molecule of template. The gapped DNA is then completely filled by pol-I1f (the large fragment of E. coli DNA polymerase I) using the four undamaged nucleotides as substrates. The transfection efficiencies and mutation frequencies are given in Table I. In reactions without HIV-RT, 1040 transfectants are obtained per ng DNA, whereas with HIV-RT and undamaged dCTP ("purified" by reverse-phase and strong-anion exchange chromatography) the yield is 165 transfectants per ng of DNA. Substitution of γ for dCTP further reduced transfection efficiency, 73 transfectants per ng of DNA. In the absence of HIV-RT the mutation frequency is 4.6×10^-4 (line 1, Table I). […]

[3] = tested on: mammalian DNA polymerase-α; test: Incorporation by mammalian DNA polymerase-α; assay type: biochemical
Procedure: (§1) Five different mammalian DNA polymerases have been identified, purified and characterized. These are designated as DNA polymerases α, β, γ, δ, ε based on their amino acid sequences, intracellular localization and presumed role in cellular DNA metabolism (Fry and Loeb, CRC Press, 1986). The ability of a human DNA polymerase to incorporate a deoxynucleoside triphosphates analogs is determined using a DNA template that corresponds to the sequence of the RNA template used to analyze incorporation by HIV RT. A direct comparison is made on the incorporation of nucleoside analogs in the triphosphate form using a human DNA polymerase with that of HIV RT.

[4] = tested on: mammalian DNA polymerase-β; test: Incorporation by mammalian DNA polymerase-β; assay type: biochemical
Procedure: as §1

Compound | Molecules incorporated by HIV-RT per molecule of template [1] | Transfection efficiency, plaques per ng [2] | Increase of mutation frequency by reaction with HIV-RT and dCTP ([2]; versus absence of HIV-RT) | Transfection efficiency (yield of transfectants) [2] | Mutation frequency [2] | Incorporation by mammalian DNA polymerase-α [3] | Efficiency of incorporation into DNA by HIV-RT, % of that for dCTP ([1]; relative to dCTP, gapped DNA) | Mutations that were C→T transitions ([2]; 173 mutations, 92 mutants sequenced) | Observed substitutions that occur at cytosines ([2]; 178 of 181 substitutions, 92 mutants sequenced) | Increase of mutation frequency ([2]; average of five molecules of γ per template DNA, versus reaction with dCTP) | Incorporation by mammalian DNA polymerase-β relative to dCTP [4]
Nc1ccn([C@H]2C[C@H](O)[C@@H](COP(=O)(O)OP(=O)(O)OP(=O)(O)O)O2)c(=O)n1 [dCTP, reference compound] | nine | 165 plaques per ng | 2.4 fold | 165 transfectants per ng of DNA | 11 × 10^-4 | – | – | – | – | – | –
Nc1nc(=O)n([C@H]2C[C@H](O)[C@@H](COP(=O)(O)OP(=O)(O)OP(=O)(O)O)O2)cc1O [γ, 5-hydroxy-2'-deoxycytidine 5'-triphosphate] | approximately five | 73 plaques per ng | – | 73 transfectants per ng of DNA | 1200×10^-4 | Neither species is incorporated appreciably | about 56% | 95.6% | 98.3% | 109 fold | 18%
